Experimental data taken from a melting point compilation (Tetko et al.).

| Compound | melting point |
| --- | --- |
| Cc1ncc(C(=O)O)c(-c2ccccc2)n1 | 210 to 211 °C |
| NC(=O)CNCCS(=O)(=O)O | 270 to 295 °C |
| CC(=Cc1ccc(F)cc1)[N+](=O)[O-] | 64 to 67 °C |
| Cc1ccc(C)c(N/N=C(\C#N)c2nc3ccccc3n2C)c1 | 260 °C |
| Nc1n[nH]c2ccc(C(F)(F)F)cc12 | 135 °C |
| NNc1cc(C(F)(F)F)ccc1Cl | 64 to 68 °C |
| Cc1nc(-c2ccc(C(F)(F)F)cc2)sc1CO | 119 to 122 °C |
| CSc1nc(=O)[nH]c2c1CCCC2 | 264 to 266 °C |
| O=C(O)CCSCSCCC(=O)O | 138 to 140 °C |
| COc1ccc(N=C=S)c(OC)c1 | 52 °C |
| O=C(NC(=O)c1c(F)cccc1F)Nc1ccc(Cl)cc1 | 239 °C |
| CC12CCC3C(CCC4CC(O)CCC43C)C1CCC2O (stereo not drawn) | 167 °C |
| C=CC(=O)NC(CO)(CO)CO | 136 to 141 °C |
| Cc1cccc(NC(=O)C(C(F)(F)F)C(F)(F)F)c1 | 175 °C |
| CCc1cccc(CC)c1N | 3.5 °C |
| Cc1nc(-c2ccc(C(F)(F)F)cc2)sc1C=O | 131 to 133 °C |
| CCc1ccc(C(c2ccc(CC)cc2)C(Cl)Cl)cc1 | 56 °C |
| Nc1ccc(-c2ccccc2N)cc1 | 54.5 °C |
| CC(=O)CC(c1ccc(Cl)cc1)c1c(O)c2ccccc2oc1=O (stereo not drawn) | 170 °C |
| CCOC(=O)CC(=O)c1cc(F)c(Cl)nc1Cl | 68 to 72 °C |
| O=C(O)CCc1ccccc1F | 76 to 78 °C |
| CC(C)(C)Oc1ncc(Br)c(OC(C)(C)C)n1 | 60 °C |
| Cc1cc(I)cnc1Br | 45 °C |
| O=C(O)c1cccnc1Sc1ccc(Cl)cc1 | 220 °C |

| Compound | melting point |
| --- | --- |
| CCOC(=O)CSc1ncc(C(=O)OC)n1C | 35 to 36 °C |
| N#Cc1c(OCC(F)(F)F)cccc1OCC(F)(F)F | 116 °C |
| Fc1ncccc1I | 45 to 46 °C |
| CC(=O)c1nn(-c2ccccc2[N+](=O)[O-])c(=NC(=O)c2ccccc2)s1 | 204 °C |
| Cn1c(Br)nc(C(=O)O)c1C(=O)O | 160 °C |
| c1ccc(-c2cccc3ccccc23)cc1 | 45 °C |
| O=C(O)CNC(=O)c1ccccc1 | 222 °C |
| CCN(CC)CCNc1ccc(C)c2sc3ccccc3c(=O)c12 | 64.5 °C |
| NCCNCCNCCN | -35 °C |
| c1ccc2cc3c(cc2c1)OCCOCCOCCOCCO3 | 117 to 118 °C |
| Oc1ccc(Nc2ccc3ccccc3c2)cc1 | 140 °C |
| N#Cc1ccccc1C#N | 140 °C |
| Nc1ccc(-c2ccc(N)cc2Cl)c(Cl)c1 | 165 °C |
| CC(Oc1ccc2ccccc2c1)C(=O)Nc1ccccc1 (stereo not drawn) | 128 °C |
| COC(=O)CCCCCCC(=O)O | 17 to 19 °C |
| OCC(F)(F)C(F)(F)C(F)(F)C(F)(F)C(F)(F)C(F)(F)C(F)(F)C(F)(F)C(F)(F)C(F)F | 95 to 97 °C |
| CC(C)C(C)C(=O)O (stereo not drawn) | -1.5 °C |
| CC/C=C/CCCC | -110 °C |
| OC(c1ccc(Cl)cc1)(c1cncnc1)c1ccccc1Cl (stereo not drawn) | 118 °C |
| Brc1c(Br)c(Br)c(-c2c(Br)c(Br)c(Br)c(Br)c2Br)c(Br)c1Br | 375 °C |
| Oc1c(F)c(F)c2c(F)c(F)c(F)c(F)c2c1F | 120 to 124 °C |
| FC(F)(F)c1cc(-n2cccc2)cc(C(F)(F)F)c1 | 43 to 45 °C |
| NC(N)=Nc1nc(CSCCC(N)=NS(N)(=O)=O)cs1 | 163 °C |
| NC(CC(=O)O)C1CCCCC1 (stereo not drawn) | 234 to 235 °C |

| Compound | melting point |
| --- | --- |
| Clc1cc2c(cc1Cl)Oc1cc(Br)c(Br)cc1O2 | 316 °C |
| C(#CP(c1ccccc1)c1ccccc1)P(c1ccccc1)c1ccccc1 | 86 °C |
| COc1ccc(N/N=C(/C#N)c2nc(-c3ccc(C)cc3)cs2)cc1 | 145 °C |
| Cc1ccc2c(C)cccc2c1 | -16.9 °C |
| CCS(=O)(=O)Oc1ccc2c(c1)C(C)(C)CO2 | 30 °C |
| O=C(O)CCn1cncn1 | 177 to 179 °C |
| Clc1ccc(COC(Cn2ccnc2)c2ccc(Cl)cc2Cl)cc1 (stereo not drawn) | 86.8 °C |
| C(C#CCOc1ccccc1)#CCOc1ccccc1 | 82 °C |
| Cc1cccc(C)c1NC(=O)c1cnc(C(C)(C)C)cn1 | 85 °C |
| Cc1c[nH]c(-c2ccccc2)n1 | 175 °C |
| C(=C(c1ccccc1)c1ccccc1)c1ccccc1 | 72.5 °C |
| CC(CC(C)=NO)=NO | 149 °C |
| O=C(C(Cl)Cl)N(CCO)Cc1ccc(Oc2ccc([N+](=O)[O-])cc2)cc1 | 136 °C |
| [O-][n+]1nc(-n2ccnc2)nc2ccc(Cl)cc21 | 182 °C |
| CCCCCCCCCCCCCCCC(CCCC)c1ccccc1 (stereo not drawn) | 30.2 °C |
| c1ccc2c(c1)ccc1c3ccccc3sc21 | 189 °C |
| O=C(Nc1ccccc1[N+](=O)[O-])C(C(F)(F)F)C(F)(F)F | 156 °C |
| O=C(Cc1ccccc1)C(=O)Cc1ccccc1 | 86 °C |
| Nc1ccc(NC(=O)c2ccc(N)cc2)cc1 | 203 to 207 °C |
| N#Cc1ccc(F)cn1 | 43 °C |
| CCNCC(=O)O | 182 to 186 °C |
| Cc1cncc(N2CCC(C(=O)O)CC2)n1 | 151 to 152 °C |
| Cc1cc(Cl)c(Cl)cc1Cl | 82.4 °C |

The remaining lines, values ahead:

| melting point | Compound |
| --- | --- |
| 31 to 33 °C | Cc1cc(C=O)no1 |
| 51 to 55 °C | Cc1onc(-c2ccc(F)cc2)c1C(=O)Cl |
| 67 °C | CCOc1cccc(C=O)c1O |
| 200 °C | CC1(C)C2CC[C@]1(CS(=O)(=O)O)C(=O)C2 |
| 92 to 93 °C | COc1ccc(Br)c(C(=O)CC#N)c1 |
| 61 to 63 °C | O=S(=O)(Cl)Cc1ccc(F)cc1 |
| 210 °C | Cc1cccc2c(C=O)c[nH]c12 |
| 323 °C | CC(=O)OC1CCC2(C)C(CCC3(C)C2C(=O)C=C2C4CC(C)(C(=O)O)CCC4(C)CCC23C)C1(C)C (stereo not drawn) |
| 44 °C | Cc1cc(C)c(N)c(Br)c1 |
| 99 to 101 °C | CCOC(=O)C(C/C=C1\OC(=O)C(OC)=C1OC)S(=O)(=O)c1ccccc1 (stereo not drawn) |
| 135 to 136 °C | COC(=O)C1(C(=O)OC)Cc2cc(C)ccc2C(=O)O1 |
| 115 to 116 °C | O=C(CBr)c1ccc2c(c1)OCCO2 |
| 94 °C | O=C(O)C(O)c1ccc(F)c(F)c1 (stereo not drawn) |
| 186 °C | O=c1ccn(C2CC(F)C(CO)O2)c(=O)[nH]1 (stereo not drawn) |
| 60 to 61 °C | O=Cc1cc(-c2ccco2)on1 |
| 180 to 183 °C | O=c1[nH]c(=O)n(C2OC(CO)C(O)C2O)cc1F (stereo not drawn) |
| 146 °C | COc1cc2ccc(=O)oc2cc1OC |
| 90 °C | CC(=O)Oc1ccccc1C(C)=O |
| 127 to 131 °C | COc1ccc(CCN2CC(C(=O)O)CC2=O)cc1OC (stereo not drawn) |

| melting point | Compound |
| --- | --- |
| 104 to 107 °C | CC(C)Cc1ccc(C(=O)C=Cc2cccc([N+](=O)[O-])c2)cc1 |
| 76 to 80 °C | Cc1nc(-c2cccc(C=O)c2)cs1 |
| 80 °C | CC1=Cc2ccccc2C1 |
| 99 to 103 °C | OCC1OC=CC(O)C1O (stereo not drawn) |
| 127 °C | CC(C)(C(=O)O)c1ccc(Cl)cc1 |
| 182 to 184 °C | NC(=O)Nc1cccc(O)c1 |
| 292 °C | Cn1c(=O)c(C2=NNC(=O)C2=CNc2cccc3ccccc23)c(O)c2ccccc21 |
| 90 °C | CCC1(CC)OC(=O)C2CCC1(C)OC2(C)C (stereo not drawn) |
| 94 °C | O=C(CBr)c1cccc([N+](=O)[O-])c1 |
| 161 °C | CC1(C(=O)O)CCC(C(Br)C(Br)c2ccccc2)C1(C)C (stereo not drawn) |
| 66 °C | CCc1ccc(N2C(=O)C=CC2=O)cc1 |
| 234 °C | CC(=O)OC1CC2(O)C(C)C(=O)C3(C(O)CC4C(C)(C)CCC(OC(C)=O)C4(C)C13)C2O (stereo not drawn) |
| 264 to 266 °C | Cc1cc(C)c2c(=O)n(-c3cccc(C(F)(F)F)c3)c(=O)[nH]c2n1 |
| 174 °C | O=C(O)c1ccc([N+](=O)[O-])cc1F |
| 132 °C | Nc1ccc2[nH]ccc2c1 |
| 167 °C | NS(=O)(=O)c1ccc(F)cc1C(F)(F)F |
| 149 °C | Cc1ccc2c(c1)OC(C)(c1ccc(C)cc1OC(=O)c1ccccc1)CC2(C)C (stereo not drawn) |
| 115 °C | Clc1c(Cl)c(Cl)c2c(c1Cl)OC(c1ccccc1)O2 |
| 193 to 195 °C | CC1(C)C(=S)NC(c2ccccc2)N1O (stereo not drawn) |

| melting point | Compound |
| --- | --- |
| 25 °C | Cc1cc(C)ncn1 |
| 186 to 187 °C | Cn1nc(-c2ccccc2)cc1C(=O)O |
| 180 to 185 °C | N#Cc1cc([N+](=O)[O-])cc(Cl)c1N |
| 245 to 246 °C | N#Cc1cc([N+](=O)[O-])ccc1Sc1nnc(N)s1 |
| 90 to 92.5 °C | CCOC=C(C#N)S(=O)(=O)c1ccc2ccccc2c1 |
| 150 to 152 °C | COc1ccc(OC)c(S(N)(=O)=O)c1 |
| 52.5 °C | N#Cc1c(F)ccc([N+](=O)[O-])c1F |
| 2 to 3 °C | CCOC(=O)c1ccccc1O |
| 95.5 °C | O=C(O)CCc1ccccc1Cl |
| 95 °C | COC(=O)C1(S(=O)(=O)c2ccc(Br)cc2)CCC1 |
| 214 to 215 °C | COc1cc(C=C2SC(=S)N(CNc3cccc([N+](=O)[O-])c3)C2=O)ccc1O |
| 272 to 273 °C | Nc1c([N+](=O)[O-])ccc2ncccc12 |
| 30.5 °C | C=CCc1ccc(OC(C)=O)c(OC)c1 |
| 168 °C | N#CC1(C#N)C2O[C@H](c3ccccc3)[C@@H](C3=C2CCCC3)C1(C#N)C#N |
| 81 to 86 °C | C/C=C/c1ccccc1C(=O)O |
| 69 to 70 °C | C[C@]12C=C[C@H](O1)[C@H]1C(=O)OC(=O)[C@H]12 |
| 137 °C | O=C1C=C(NCCCCc2ccccc2)C(=O)c2ccccc21 |
| 151 to 152 °C | O=C1C2ON(c3ccccc3)C(c3ccccc3)C2C(=O)N1c1ccccc1 (stereo not drawn) |
| 116 °C | CC(=O)CCC1C(=O)N(c2ccccc2)N(c2ccccc2)C1=O |
